Data taken from US10322123B2, “Compound for anti-cancer therapy that acts by targeting GOF mutant P53 and stimulates P73 to restore the P53 pathway signaling” (The Penn State Research Foundation, priority 2014, dated 2019).

Key:
[1] = system: cancer cell lines bearing different p53 mutations; test: CellTiter-Glo luminescent cell viability assay, cell line panel; format: cell-based, human; conditions: most cancer cells compared with normal cells, 72 hr
Description: (§1) Cells at a concentration of 5000 cells/well in 96-well plates were treated with NSC59984 or other drugs. At seventy-two hours after treatment, cells were mixed with an equal volume of CellTiter-Glo reagents (Promega, Madison, Wis.), following the manufacturer's protocol, and bioluminescence imaging was measured using the IVIS imager.

p21, Puma and Noxa mRNA = test: qRT-PCR of p53 target gene mRNA; format: cell-based, human
From the text: (§2) Total RNA was isolated from cells using RNeasy mini kit (Qiagen, USA) by the recommended protocol. Reverse transcription used SuperScript II first-strand synthesis system (Invitrogen, USA) with random primers. qRT-PCR reactions used SYBR green master mix with the Real-Time PCR Detection systems (Bio-Rad, USA). Primers for qRT-PCR are (forward) 5′-[…]-3′ (SEQ ID NO: 1) and (reverse) 5′-[…]-3′ (SEQ ID NO: 2) for p53, (forward) 5′-TGTCCGTCAGAACCCATG-3′ (SEQ ID NO: 3) and (reverse) 5′-[…]-3′ (SEQ ID NO: 4) for p21, (forward) 5′-[…]-3′ (SEQ ID NO: 5) and (reverse) 5′-[…]-3′ (SEQ ID NO: 6) for Puma, (forward) 5′-[…]-3′ (SEQ ID NO: 7) and (reverse) 5′-[…]-3′ (SEQ ID NO: 8) for Noxa, (forward) 5′-CTGGGCTACACTGAGCACC-3′ (SEQ ID NO: 9) and (reverse) 5′-[…]-3′ (SEQ ID NO: 10) for Gapdh. Target gene expression levels were normalized with Gapdh.

DLD-1 cells = test: CellTiter-Glo cell viability, DLD-1 with Ad-p73 or p73 knock-down; format: cell-based, human; conditions: for Combination index (CI): DLD-1
Description: as §1
Cells were infected with retrovirus containing the pSIREN-REtrpcQ retroviral vector recombinant with TAp73 RNAi. Cells were cultured with blasticidin for several weeks, and blasticidin-resistant clones were selected. Knock-down of p73 was detected by measuring p73 protein levels by Western blot with anti-p73 antibody (Bethyl laboratories Inc. USA).
Cells were infected with an adenovirus that expresses p73-beta (Ad-p73) or wild type p53 (Ad-p53) and cultured for 24 hr, as previously described (Huang C, et al., Cancer Biol Ther 2009; 8: 2186-93). Then, the infected cells were cultured in fresh medium and subjected to different treatments.
(§3) All results were obtained from triplicate experiments, unless other indicated. Statistical analyses were performed using PRISM4 Software (GraphPad Software, Inc., San Diego, Calif., USA), ANOVA and Student's t-test. Statistical significances were determined by p<0.05. Combination indices were calculated using the Chou-Talalay method with CalcuSyn software (biosoft).

[2] = system: p73 knock-down DLD-1 xenograft tumors; test: In vivo anti-tumor assay, xenograft; design: species or system mice; conditions: 45 mg/kg i.p. every 5 days
Description: (§4) CRL nude mice (female, 4-6 weeks old) were inoculated s.c. in the opposite flanks with 5 million DLD-1 or p73 knock-down DLD-1 cells in an equal volume of martrigel. Treatment with NSC59984 (i.p. injection) was initiated when the tumor masses reached a size of 3-5 mm. NSC59984 (45 mg/kg) was injected by i.p. route every 5 days. Fifteen days after treatment, the mice were euthanized using an institutional animal care and use committee-approved animal protocol.

DLD-1 xenograft tumors = test: In vivo anti-tumor assay, xenograft; design: species or system mice; conditions: 45 mg/kg i.p. every 5 days
Description: as §4

[3] = system: MRC5 normal human fibroblast cells; test: Flow cytometry sub-G1 DNA content; format: cell-based; conditions: 50 μM, 72 hr
Description: (§5) Cells were treated with NSC59984 or other drugs. Seventy-two hours after treatment, the cells were fixed with ethanol and stained with Propidium Iodide (PI). The samples were then subjected to analysis by an Epics Elite flow cytometer to measure the DNA content of the stained cells.

[4] = system: Wi38 normal human fibroblast cells; test: Flow cytometry sub-G1 DNA content; format: cell-based; conditions: 50 μM, 72 hr
Description: as §5

mutant p53 mRNA = test: Mutant p53 mRNA qRT-PCR; format: cell-based, human; conditions: SW480 cells, 3 hr or 16 hr, compared to DMSO control
From the text: as §2

γH2AX = test: Genotoxicity measured by γH2AX; format: cell-based, human
Description: (§6) Proteins were extracted from cells and electrophoresed through 4-12% SDS-PAGE then transferred to PVDF membranes. The primary antibodies indicated in the figures were incubated with the transferred PVDF in blocking buffer at 4° C. overnight. Antibody binding was detected on PVDF with appropriate IRDye-secondary antibodies (LI-COR Biosciences, USA) by the ODYSSEY infrared imaging system.

[5] = system: Wi38 normal fibroblast cells; test: CellTiter-Glo cell viability, combination with CPT-11; format: cell-based, human; conditions: for Combination index (CI): Wi38, 72 hr
Description: as §1, §3

PARP cleavage = test: Cleaved PARP Western blot; format: cell-based, human; conditions: for PARP cleavage: 30 hours
Description: as §6

MDM2 = test: Phosphorylation Western blot; format: cell-based, human; conditions: SW480 cells
Description: as §6

## CN1CCN(C(=O)/C=C/c2ccc([N+](=O)[O-])o2)CC1 [NSC59984, (E)-1-(4-methylpiperazin-1-yl)-3-(5-nitrofuran-2-yl)prop-2-en-1-one]
[1]
  EC50 cell viability: significantly lower
p21, Puma and Noxa mRNA; 25 μM in HCT116 and 12 μM in p53-null HCT116 cells
  Noxa mRNA: slightly increased
p21, Puma and Noxa mRNA; HCT116 and p53-null HCT116 cells
  Puma and p21 mRNA level: not up-regulated
p21, Puma and Noxa mRNA; SW480 and DLD-1 cells, 3 hours, dose-dependent
  mRNA levels of p21, Noxa and Puma: significantly increased
DLD-1 cells; Ad-P73 dilution 1:1k, NSC59984 12 μM
  Combination index (CI): 0.273
DLD-1 cells; Ad-P73 dilution 1:1k, NSC59984 25 μM
  Combination index (CI): 0.12
DLD-1 cells; Ad-P73 dilution 1:1k, NSC59984 50 μM
  Combination index (CI): 0.033
DLD-1 cells; Ad-P73 dilution 1:2k, NSC59984 12 μM
  Combination index (CI): 0.357
DLD-1 cells; Ad-P73 dilution 1:2k, NSC59984 25 μM
  Combination index (CI): 0.127
DLD-1 cells; Ad-P73 dilution 1:2k, NSC59984 50 μM
  Combination index (CI): 0.039
DLD-1 cells; Ad-P73 dilution 1:4k, NSC59984 12 μM
  Combination index (CI): 0.303
DLD-1 cells; Ad-P73 dilution 1:4k, NSC59984 25 μM
  Combination index (CI): 0.121
DLD-1 cells; Ad-P73 dilution 1:4k, NSC59984 50 μM
  Combination index (CI): 0.037
DLD-1 cells; Ad-P73 dilution 1:8k, NSC59984 12 μM
  Combination index (CI): 0.319
DLD-1 cells; Ad-P73 dilution 1:8k, NSC59984 25 μM
  Combination index (CI): 0.115
DLD-1 cells; Ad-P73 dilution 1:8k, NSC59984 50 μM
  Combination index (CI): 0.036
DLD-1 cells; Ad-P73 dilution 1:16k, NSC59984 12 μM
  Combination index (CI): 0.239
DLD-1 cells; Ad-P73 dilution 1:16k, NSC59984 25 μM
  Combination index (CI): 0.098
DLD-1 cells; Ad-P73 dilution 1:16k, NSC59984 50 μM
  Combination index (CI): 0.027
DLD-1 cells; Ad-P73 dilution 1:32k, NSC59984 12 μM
  Combination index (CI): 0.636
DLD-1 cells; Ad-P73 dilution 1:32k, NSC59984 25 μM
  Combination index (CI): 0.282
DLD-1 cells; Ad-P73 dilution 1:32k, NSC59984 50 μM
  Combination index (CI): 0.078
DLD-1 cells; DLD-1 cells infected with Ad-p73
  cell viability, combination with exogenous p73: synergized
DLD-1 cells; p73 knock-down DLD-1 cells compared with DLD-1 cells, 72 hr
  cell viability: higher
[2]
  tumor growth suppression: not observed
[2]; day 15
  tumor weight reduced by: 18%
DLD-1 xenograft tumors; compared to DMSO control
  xenograft tumor growth: significantly repressed
DLD-1 xenograft tumors; day 15
  tumor weight reduced by: 34%
[3]
  DNA content in Sub-G1: 30%
[4]
  DNA content in Sub-G1: 12%
Mutant p53 mRNA
  p53 mRNA: not decreased
γH2AX; HCT116 cells, 8 hours, 12 μM
  γH2AX: increase of γH2AX
γH2AX; SW480 and DLD-1 cancer cells, within 24 hr, up to 50 μM
  γH2AX: No γH2AX was found
[5]; CPT-11 15 mg/ml, NSC59984 6 mM
  Combination index (CI): 1.50 ± 0.18
[5]; CPT-11 15 mg/ml, NSC59984 12 mM
  Combination index (CI): 1.45 ± 0.12
[5]; CPT-11 15 mg/ml, NSC59984 25 mM
  Combination index (CI): 0.88 ± 0.11
[5]; CPT-11 15 mg/ml, NSC59984 50 mM
  Combination index (CI): 0.03 ± 0.01
[5]; CPT-11 30 mg/ml, NSC59984 6 mM
  Combination index (CI): 1.10 ± 0.14
[5]; CPT-11 30 mg/ml, NSC59984 12 mM
  Combination index (CI): 0.95 ± 0.05
[5]; CPT-11 30 mg/ml, NSC59984 25 mM
  Combination index (CI): 0.20 ± 0.04
[5]; CPT-11 30 mg/ml, NSC59984 50 mM
  Combination index (CI): 0.03 ± 0.00
[5]; CPT-11 60 mg/ml, NSC59984 6 mM
  Combination index (CI): 0.58 ± 0.10
[5]; CPT-11 60 mg/ml, NSC59984 12 mM
  Combination index (CI): 0.44 ± 0.06
[5]; CPT-11 60 mg/ml, NSC59984 25 mM
  Combination index (CI): 0.01 ± 0.00
[5]; CPT-11 60 mg/ml, NSC59984 50 mM
  Combination index (CI): 0.05 ± 0.00
[5]; CPT-11 120 mg/ml, NSC59984 6 mM
  Combination index (CI): 0.96 ± 0.22
[5]; CPT-11 120 mg/ml, NSC59984 12 mM
  Combination index (CI): 0.29 ± 0.04
[5]; CPT-11 120 mg/ml, NSC59984 25 mM
  Combination index (CI): 0.01 ± 0.00
[5]; CPT-11 120 mg/ml, NSC59984 50 mM
  Combination index (CI): 0.11 ± 0.02
[5]; normal fibroblast Wi38 cells
  combinational treatment with CPT11: synergic activity
PARP cleavage; cancer cells, dose-dependent
  PARP cleavage: increased
PARP cleavage; normal cells, same doses
  PARP cleavage: not observed
PARP cleavage; p73 knock-down DLD-1 cells, 24 hours
  NSC59984-induced PARP cleavage: partially abrogated
MDM2
  phosphorylation of MDM2: phosphorylated at Ser166
